From patent publication US9138436B2, “Inhibitors of Bruton's tyrosine kinase” (PHARMACYCLICS LLC, priority 2011, dated 2015)

biological target: Btk (Homo sapiens, UniProt Q06187); assay: Btk in vitro inhibitory activity, acellular kinase assay (TR-FRET); format: biochemical
Procedure: Btk kinase activity is determined using a time-resolved fluorescence resonance energy transfer (TR-FRET) methodology. Measurements are performed in a reaction volume of 50 μL using 96-well assay plates. Kinase enzyme, inhibitor, ATP (at the Km for the kinase), and 1 μM peptide substrate (Biotin-AVLESEEELYSSARQ-NH2) are incubated in a reaction buffer composed of 20 mM Tris, 50 mM NaCl, MgCl2 (5-25 mM depending on the kinase), MnCl2 (0-10 mM), 1 mM DTT, 0.1 mM EDTA, 0.01% bovine serum albumin, 0.005% Tween-20, and 10% DMSO at pH 7.4 for one hour. The reaction is quenched by the addition of 1.2 equivalents of EDTA (relative to divalent cation) in 25 μL of 1× Lance buffer (Perkin-Elmer). Streptavidin-APC (Perkin-Elmer) and Eu-labeled p-Tyr100 antibody (Perkin-Elmer) in 1× Lance buffer are added in a 25 μL volume to give final concentrations of 100 nM and 2.5 nM, respectively, and the mixture is allowed to incubate for one hour. The TR-FRET signal is measured on a multimode plate reader with an excitation wavelength (λEx) of 330 nm and detection wavelengths (λEm) of 615 and 665 nm. Activity is determined by the ratio of the fluorescence at 665 nm to that at 615 nm. For each compound, enzyme activity is measured at various concentrations of compound. Negative control reactions are performed in the absence of inhibitor in replicates of six, and two no-enzyme controls were used to determine baseline fluorescence levels. Inhibition constants, Ki(app), are obtained using the program BatchKi (Kuzmic et al. (2000), Anal. Biochem. 286:45-50). IC50s are obtained according to the equation: IC50={Ki(app)/(1+[ATP]/Km^ATP)}+[E]total/2;
For all kinases, [ATP]=Km^ATP, [Btk]total=0.5 nM and [Lck]total=6 nM.

Btk, sequence (Q06187 whole entry): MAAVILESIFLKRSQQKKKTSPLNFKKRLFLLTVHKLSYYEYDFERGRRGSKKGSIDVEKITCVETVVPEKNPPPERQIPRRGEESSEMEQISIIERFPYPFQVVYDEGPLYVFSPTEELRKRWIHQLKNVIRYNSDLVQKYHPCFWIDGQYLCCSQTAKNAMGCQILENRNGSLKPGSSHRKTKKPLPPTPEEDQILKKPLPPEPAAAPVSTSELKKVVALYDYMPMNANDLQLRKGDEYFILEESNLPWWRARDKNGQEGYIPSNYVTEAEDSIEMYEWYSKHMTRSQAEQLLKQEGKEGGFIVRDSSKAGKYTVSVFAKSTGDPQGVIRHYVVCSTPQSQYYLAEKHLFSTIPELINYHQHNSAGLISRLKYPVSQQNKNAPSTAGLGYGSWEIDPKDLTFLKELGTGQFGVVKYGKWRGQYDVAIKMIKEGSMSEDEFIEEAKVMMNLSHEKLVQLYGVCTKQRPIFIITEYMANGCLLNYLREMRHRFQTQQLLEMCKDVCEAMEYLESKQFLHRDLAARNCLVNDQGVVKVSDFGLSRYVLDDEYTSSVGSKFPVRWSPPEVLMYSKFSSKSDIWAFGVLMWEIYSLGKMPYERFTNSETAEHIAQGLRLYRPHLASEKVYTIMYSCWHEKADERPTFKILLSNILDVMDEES

| Compound | IC50 [nM] |
| --- | --- |
| Nc1ncnc2c1c(-c1ccc(Oc3ccccc3)cc1)nn2[C@@H]1CCCN(C(=O)/C=C/CNC2CC2)C1 [Example 2af, (R,E)-1-(3-(4-amino-3-(4-phenoxyphenyl)-1H-pyrazolo[3,4-d]pyrimidin-1-yl)piperidin-1-yl)-4-(cyclopropylamino)but-2-en-1-one] | < 100 |
| CN(C/C=C/C(=O)N1CCC(n2nc(-c3ccc(Oc4ccccc4)cc3)c3c(N)ncnc32)CC1)C1CC1 [Example 5b, (E)-1-(4-(4-amino-3-(4-phenoxyphenyl)-1H-pyrazolo[3,4-d]pyrimidin-1-yl)piperidin-1-yl)-4-(cyclopropyl(methyl)amino)but-2-en-1-one] | < 100 |
| Nc1ncnc2c1c(-c1ccc(Oc3ccccc3)cc1)nn2[C@@H]1CCN(C(=O)/C=C/CN(C2CC2)C2CC2)C1 [Example 2a, (R,E)-1-(3-(4-amino-3-(4-phenoxyphenyl)-1H-pyrazolo[3,4-d]pyrimidin-1-yl)pyrrolidin-1-yl)-4-(dicyclopropylamino)but-2-en-1-one] | < 100 |
| Nc1ncnc2c1c(-c1ccc(Oc3ccccc3)cc1)nn2[C@@H]1CCCN(C(=O)/C=C/CN[C@H]2CCOC2)C1 [Example 2k, (E)-1-((R)-3-(4-amino-3-(4-phenoxyphenyl)-1H-pyrazolo[3,4-d]pyrimidin-1-yl)piperidin-1-yl)-4-((S)-tetrahydrofuran-3-ylamino)but-2-en-1-one] | < 100 |
| CN(C/C=C/C(=O)N1CC[C@@H](n2nc(-c3ccc(Oc4ccccc4)cc3)c3c(N)ncnc32)C1)C1CCOCC1 [Example 1k, (R,E)-1-(3-(4-amino-3-(4-phenoxyphenyl)-1H-pyrazolo[3,4-d]pyrimidin-1-yl)pyrrolidin-1-yl)-4-(methyl(tetrahydro-2H-pyran-4-yl)amino)but-2-en-1-one] | < 100 |
| CN(C/C=C/C(=O)N1CCC[C@@H](n2nc(-c3ccc(Oc4ccccc4)cc3)c3c(N)ncnc32)C1)C1CCC1 [Example 2ak, (R,E)-1-(3-(4-amino-3-(4-phenoxyphenyl)-1H-pyrazolo[3,4-d]pyrimidin-1-yl)piperidin-1-yl)-4-(cyclobutyl(methyl)amino)but-2-en-1-one] | < 100 |
| CN(C/C=C/C(=O)N1CCC[C@@H](n2nc(-c3ccc(Oc4ccccc4)cc3)c3c(N)ncnc32)C1)c1ccccn1 [Example 1t, (R,E)-1-(3-(4-amino-3-(4-phenoxyphenyl)-1H-pyrazolo[3,4-d]pyrimidin-1-yl)piperidin-1-yl)-4-(methyl(pyridin-2-yl)amino)but-2-en-1-one] | < 100 |
| CN(C/C=C/C(=O)N1CCC[C@@H](n2nc(-c3ccc(Oc4ccccc4)cc3)c3c(N)ncnc32)C1)C1CCCC1 [Example 2ai, (R,E)-1-(3-(4-amino-3-(4-phenoxyphenyl)-1H-pyrazolo[3,4-d]pyrimidin-1-yl)piperidin-1-yl)-4-(cyclopentyl(methyl)amino)but-2-en-1-one] | < 100 |
| CN(C/C=C/C(=O)N1CC[C@@H](n2nc(-c3ccc(Oc4ccccc4)cc3)c3c(N)ncnc32)C1)c1ccccn1 [Example 1r, (R,E)-1-(3-(4-amino-3-(4-phenoxyphenyl)-1H-pyrazolo[3,4-d]pyrimidin-1-yl)pyrrolidin-1-yl)-4-(methyl(pyridin-2-yl)amino)but-2-en-1-one] | < 100 |
| Nc1ncnc2c1c(-c1ccc(Oc3ccccc3)cc1)nn2[C@@H]1CCN(C(=O)/C=C/CNC2CC2)C1 [Example 3a, (R,E)-1-(3-(4-amino-3-(4-phenoxyphenyl)-1H-pyrazolo[3,4-d]pyrimidin-1-yl)pyrrolidin-1-yl)-4-(cyclopropylamino)but-2-en-1-one] | < 100 |
| Nc1ncnc2c1c(-c1ccc(Oc3ccccc3)cc1)nn2[C@@H]1CCCN(C(=O)/C=C/CNC2CCC2)C1 [Example 2am, (R,E)-1-(3-(4-amino-3-(4-phenoxyphenyl)-1H-pyrazolo[3,4-d]pyrimidin-1-yl)piperidin-1-yl)-4-(cyclobutylamino)but-2-en-1-one] | < 100 |
| CCN(C/C=C/C(=O)N1CC[C@@H](n2nc(-c3ccc(Oc4ccccc4)cc3)c3c(N)ncnc32)C1)C1CCC1 [Example 2ap, (R,E)-1-(3-(4-amino-3-(4-phenoxyphenyl)-1H-pyrazolo[3,4-d]pyrimidin-1-yl)pyrrolidin-1-yl)-4-(cyclobutyl(ethyl)amino)but-2-en-1-one] | < 100 |
